# Test results as given in PubChem BioAssay AID1963445 (Molecular Pharmacology Branch, DTP, NCI, 2024).
# pIC50: −log10 of the molar value. “And” between values parts separate entries of the source, which are not always exact repeats. Equal entries are not always repeated.
# Tested on: MCF7 complex spheroid growth, % test/control
# Experiment: Anticancer human tumor MCF7 cell line growth inhibition [Asc];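 further: spheroids exposed to compounds for 7 days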;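 on viability, T/C: 100% = DMSO vehicle control wells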
# Details: for viability, T/C: stronger effect = lower value
# Procedure, shortened: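 Tumor cells were grown as complex spheroids with human endothelial cells (HUVEC) and human mesenchymal stem cells as stroma. Agents were tested alone and in combination, in half-log steps down from the clinical Cmax, or from 10 microM where Cmax was unknown.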
# [1] = curve of first compound, second compound 0.00949 µM
# [2] = curve of first compound, second compound 0.03 µM
# [3] = curve of first compound, second compound 0.0949 µM
# [4] = curve of first compound, second compound 0.3 µM
# [5] = curve of first compound, second compound 0.949 µM
# [6] = curve of first compound, second compound 3 µM
# [7] = second compound 0.00949 µM, first compound 0.0316 µM
# [8] = second compound 0.00949 µM, first compound 0.1 µM
# [9] = second compound 0.03 µM, first compound 0.0316 µM
# [10] = second compound 0.03 µM, first compound 0.1 µM
# [11] = second compound 0.0949 µM, first compound 0.0316 µM
# [12] = second compound 0.0949 µM, first compound 0.1 µM
# [13] = second compound 0.3 µM, first compound 0.0316 µM
# [14] = second compound 0.3 µM, first compound 0.1 µM
# [15] = second compound 0.949 µM, first compound 0.0316 µM
# [16] = second compound 0.949 µM, first compound 0.1 µM
# [17] = second compound 3 µM, first compound 0.0316 µM
# [18] = second compound 3 µM, first compound 0.1 µM
compound,measurement,setting,value
Cc1nc(N2CCC3(CC2)COC(C)C3N)c(CO)nc1Sc1ccnc(N)c1Cl (stereo not drawn) + CNC(C)C(=O)NC1CN(S(=O)(=O)c2cccc(S(=O)(=O)N3CCC4CCC(C(=O)NC(c5ccccc5)c5ccccc5)N4C(=O)C(NC(=O)C(C)NC)C3)c2)CCC2CCC(C(=O)NC(c3ccccc3)c3ccccc3)N2C1=O,pIC50,"curve of first compound, second compound 0.00316 µM",> 8.02
same,pIC50,"curve of first compound, second compound 0.01 µM",> 8.02
same,pIC50,"curve of first compound, second compound 0.0316 µM",> 8.02
same,pIC50,"curve of first compound, second compound 0.1 µM",> 8.02
same,pIC50,"curve of first compound, second compound 0.316 µM",> 8.02
same,pIC50,"curve of first compound, second compound 1 µM",> 8.02
same,"viability, T/C","second compound 0.00316 µM, first compound 0.00949 µM",26.7%
same,"viability, T/C","second compound 0.00316 µM, first compound 0.03 µM",31.8%
same,"viability, T/C","second compound 0.00316 µM, first compound 0.0949 µM",19.9%
same,"viability, T/C","second compound 0.00316 µM, first compound 0.3 µM",17.6%
same,"viability, T/C","second compound 0.00316 µM, first compound 0.949 µM",10.6%
same,"viability, T/C","second compound 0.00316 µM, first compound 3 µM",10.9%
same,"viability, T/C","second compound 0.01 µM, first compound 0.00949 µM",15.9%
same,"viability, T/C","second compound 0.01 µM, first compound 0.03 µM",11.2%
same,"viability, T/C","second compound 0.01 µM, first compound 0.0949 µM",10.3%
same,"viability, T/C","second compound 0.01 µM, first compound 0.3 µM",13%
same,"viability, T/C","second compound 0.01 µM, first compound 0.949 µM",11.4%
same,"viability, T/C","second compound 0.01 µM, first compound 3 µM",11.1%
same,"viability, T/C","second compound 0.0316 µM, first compound 0.00949 µM",12.7%
same,"viability, T/C","second compound 0.0316 µM, first compound 0.03 µM",10.7%
same,"viability, T/C","second compound 0.0316 µM, first compound 0.0949 µM",12.2%
same,"viability, T/C","second compound 0.0316 µM, first compound 0.3 µM",11.9%
same,"viability, T/C","second compound 0.0316 µM, first compound 0.949 µM",11.3%
same,"viability, T/C","second compound 0.0316 µM, first compound 3 µM",9.37%
same,"viability, T/C","second compound 0.1 µM, first compound 0.00949 µM",10.1%
same,"viability, T/C","second compound 0.1 µM, first compound 0.03 µM",12.7%
same,"viability, T/C","second compound 0.1 µM, first compound 0.0949 µM",11.3%
same,"viability, T/C","second compound 0.1 µM, first compound 0.3 µM",10.4%
same,"viability, T/C","second compound 0.1 µM, first compound 0.949 µM",10.6%
same,"viability, T/C","second compound 0.1 µM, first compound 3 µM",10.1%
same,"viability, T/C","second compound 0.316 µM, first compound 0.00949 µM",13.9%
same,"viability, T/C","second compound 0.316 µM, first compound 0.03 µM",12.2%
same,"viability, T/C","second compound 0.316 µM, first compound 0.0949 µM",11.5%
same,"viability, T/C","second compound 0.316 µM, first compound 0.3 µM",11.6%
same,"viability, T/C","second compound 0.316 µM, first compound 0.949 µM",12.3%
same,"viability, T/C","second compound 0.316 µM, first compound 3 µM",12%
same,"viability, T/C","second compound 1 µM, first compound 0.00949 µM",13.6%
same,"viability, T/C","second compound 1 µM, first compound 0.03 µM",12.7%
same,"viability, T/C","second compound 1 µM, first compound 0.0949 µM",14.2%
same,"viability, T/C","second compound 1 µM, first compound 0.3 µM",11.9%
same,"viability, T/C","second compound 1 µM, first compound 0.949 µM",12.6%
same,"viability, T/C","second compound 1 µM, first compound 3 µM",11.9%
Cc1nc(N2CCC3(CC2)COC(C)C3N)c(CO)nc1Sc1ccnc(N)c1Cl (stereo not drawn),"viability, T/C",compound 0.00949 µM,89.4% and 87.6% and 92.8%
same,"viability, T/C",compound 0.03 µM,89.1% and 113% and 107%
same,"viability, T/C",compound 0.0949 µM,86.5% and 90.9% and 95.4%
same,"viability, T/C",compound 0.3 µM,82.5% and 93.3% and 94.7%
same,"viability, T/C",compound 0.949 µM,16.5% and 27% and 73%
same,"viability, T/C",compound 3 µM,11.1% and 14.7% and 16.4%
same,pIC50,curve of compound,6.28 and 6.20 and 5.82
C=C(F)C(=O)N1CCN(c2nc(OCC3CCCN3C)nc3c2CCN(c2cccc4cccc(Cl)c24)C3)CC1CC#N (stereo not drawn) + CCN1C(C(=O)NC23CCC(C(=O)O)(CC2)CC3)C(c2cccc(Cl)c2F)C2(C(=O)Nc3cc(Cl)ccc32)C12CCCCC2,pIC50,[1],5.50
same,pIC50,[2],5.49
same,pIC50,[3],5.93
same,pIC50,[4],> 7.50
same,pIC50,[5],> 7.50
same,pIC50,[6],> 7.50
same,"viability, T/C",[7],103%
same,"viability, T/C",[8],115%
same,"viability, T/C","second compound 0.00949 µM, first compound 0.316 µM",109%
same,"viability, T/C","second compound 0.00949 µM, first compound 1 µM",89.8%
same,"viability, T/C","second compound 0.00949 µM, first compound 3.16 µM",50.4%
same,"viability, T/C","second compound 0.00949 µM, first compound 10 µM",0.16%
same,"viability, T/C",[9],104%
same,"viability, T/C",[10],77.1%
same,"viability, T/C","second compound 0.03 µM, first compound 0.316 µM",109%
same,"viability, T/C","second compound 0.03 µM, first compound 1 µM",69.3%
same,"viability, T/C","second compound 0.03 µM, first compound 3.16 µM",53.8%
same,"viability, T/C","second compound 0.03 µM, first compound 10 µM",0.23%
same,"viability, T/C",[11],50.4%
same,"viability, T/C",[12],52.5%
same,"viability, T/C","second compound 0.0949 µM, first compound 0.316 µM",50.5%
same,"viability, T/C","second compound 0.0949 µM, first compound 1 µM",57.5%
same,"viability, T/C","second compound 0.0949 µM, first compound 3.16 µM",33.6%
same,"viability, T/C","second compound 0.0949 µM, first compound 10 µM",0.14%
same,"viability, T/C",[13],30.5%
same,"viability, T/C",[14],28%
same,"viability, T/C","second compound 0.3 µM, first compound 0.316 µM",34.2%
same,"viability, T/C","second compound 0.3 µM, first compound 1 µM",34.8%
same,"viability, T/C","second compound 0.3 µM, first compound 3.16 µM",10.5%
same,"viability, T/C","second compound 0.3 µM, first compound 10 µM",0.24%
same,"viability, T/C",[15],20.6%
same,"viability, T/C",[16],20.7%
same,"viability, T/C","second compound 0.949 µM, first compound 0.316 µM",28.5%
same,"viability, T/C","second compound 0.949 µM, first compound 1 µM",17.1%
same,"viability, T/C","second compound 0.949 µM, first compound 3.16 µM",2.09%
same,"viability, T/C","second compound 0.949 µM, first compound 10 µM",0.2%
same,"viability, T/C",[17],15.2%
same,"viability, T/C",[18],15.4%
same,"viability, T/C","second compound 3 µM, first compound 0.316 µM",14.1%
same,"viability, T/C","second compound 3 µM, first compound 1 µM",11.8%
same,"viability, T/C","second compound 3 µM, first compound 3.16 µM",2.7%
same,"viability, T/C","second compound 3 µM, first compound 10 µM",0.44%
Cn1ncnc1[C@H]1c2n[nH]c(=O)c3cc(F)cc(c23)N[C@@H]1c1ccc(F)cc1 + CCN1C(C(=O)NC23CCC(C(=O)O)(CC2)CC3)C(c2cccc(Cl)c2F)C2(C(=O)Nc3cc(Cl)ccc32)C12CCCCC2,pIC50,[1],< 7.00
same,pIC50,[2],< 7.00
same,pIC50,[3],8.70
same,pIC50,[4],> 9.50
same,pIC50,[5],> 9.50
same,pIC50,[6],> 9.50
same,"viability, T/C","second compound 0.00949 µM, first compound 0.000316 µM",121%
same,"viability, T/C","second compound 0.00949 µM, first compound 0.001 µM",98.8%
same,"viability, T/C","second compound 0.00949 µM, first compound 0.00316 µM",116%
same,"viability, T/C","second compound 0.00949 µM, first compound 0.01 µM",73.1%
same,"viability, T/C",[7],92.4%
same,"viability, T/C",[8],67%
same,"viability, T/C","second compound 0.03 µM, first compound 0.000316 µM",67.4%
same,"viability, T/C","second compound 0.03 µM, first compound 0.001 µM",96.7%
same,"viability, T/C","second compound 0.03 µM, first compound 0.00316 µM",75.8%
same,"viability, T/C","second compound 0.03 µM, first compound 0.01 µM",77.6%
same,"viability, T/C",[9],55.1%
same,"viability, T/C",[10],51%
same,"viability, T/C","second compound 0.0949 µM, first compound 0.000316 µM",51.9%
same,"viability, T/C","second compound 0.0949 µM, first compound 0.001 µM",56.7%
same,"viability, T/C","second compound 0.0949 µM, first compound 0.00316 µM",52.3%
same,"viability, T/C","second compound 0.0949 µM, first compound 0.01 µM",38.8%
same,"viability, T/C",[11],37.7%
same,"viability, T/C",[12],37%
same,"viability, T/C","second compound 0.3 µM, first compound 0.000316 µM",35.9%
same,"viability, T/C","second compound 0.3 µM, first compound 0.001 µM",29.8%
same,"viability, T/C","second compound 0.3 µM, first compound 0.00316 µM",29.7%
same,"viability, T/C","second compound 0.3 µM, first compound 0.01 µM",32.9%
same,"viability, T/C",[13],26.1%
same,"viability, T/C",[14],29.1%
same,"viability, T/C","second compound 0.949 µM, first compound 0.000316 µM",21.5%
same,"viability, T/C","second compound 0.949 µM, first compound 0.001 µM",23.1%
same,"viability, T/C","second compound 0.949 µM, first compound 0.00316 µM",16.4%
same,"viability, T/C","second compound 0.949 µM, first compound 0.01 µM",15.9%
same,"viability, T/C",[15],20.8%
same,"viability, T/C",[16],18.4%
same,"viability, T/C","second compound 3 µM, first compound 0.000316 µM",15.6%
same,"viability, T/C","second compound 3 µM, first compound 0.001 µM",17.2%
same,"viability, T/C","second compound 3 µM, first compound 0.00316 µM",15.5%
same,"viability, T/C","second compound 3 µM, first compound 0.01 µM",13.1%
same,"viability, T/C",[17],13.9%
same,"viability, T/C",[18],14.6%
